This note sets out measurements from the supplement of paper PMC9103864.

Assay [1] concerns BMSC (primary human bone marrow mesenchymal stromal cells). The experiment in a line: absolute EC50 for viability; higher = less sensitive.
The test system is the same in assay [2]. The experiment in a line: drug sensitivity score (DSS); higher = more sensitive.

SMILES strings stand for the structures.

On to `CC(C)Oc1ccc(C(=O)N[C@H](CNC(=O)CN(C)C)Cc2ccc(-c3cn4cccc([C@H](C)O)c4n3)cc2)cc1Cl`, for which, in assay [1], the “absolute EC50 for viability” value worked out at 9.93 µM. Also, the drug sensitivity score in assay [2] amounted to 0.
On to `CO[C@H]1C[C@@H]2CC[C@@H](C)[C@@](O)(O2)C(=O)C(=O)N2CCCC[C@H]2C(=O)O[C@H]([C@H](C)C[C@@H]2CC[C@@H](OP(C)(C)=O)[C@H](OC)C2)CC(=O)[C@H](C)/C=C(\C)[C@@H](O)[C@@H](OC)C(=O)[C@H](C)C[C@H](C)/C=C/C=C/C=C/1C` [Ridaforolimus], for which the “absolute EC50 for viability” value in assay [1] was over 0.1 µM. The molecule also registered a drug sensitivity score in assay [2] of 7.6.
Turning to `CN(C(=O)c1ccc(F)cc1C(F)(F)F)C1CCN(c2nnc(-c3ccnn3C)c3ccccc23)CC1` [Taladegib], in assay [1], the “absolute EC50 for viability” value is over 10 µM. Further, in assay [2], the drug sensitivity score came out at 0.
Turning to `CC(C)C[C@H](NC(=O)[C@H](Cc1ccccc1)NC(=O)c1cnccn1)B(O)O` [Bortezomib], the “absolute EC50 for viability” value in assay [1] was found to be 0.0507 µM. The drug sensitivity score in assay [2] stood at 14.5.
Take `COCC1(CO)C(=O)C2CCN1CC2` (configuration not stated) [APR-246]: the “absolute EC50 for viability” value in assay [1] was over 10 µM. This molecule came in with a drug sensitivity score in assay [2] of 0.
As to `CC[C@@H]1[C@H](F)C(=O)N[C@@H]1COc1nccc2cc(C(N)=O)c(OC)cc12`, the “absolute EC50 for viability” value in assay [1] was over 10 µM. Besides, the drug sensitivity score in assay [2] was 0.3.
For the molecule `CC1(C)OCCn2c1nc1c(N3CCOCC3)nc(-c3cnc(N)nc3)nc12` [GDC-0084], the “absolute EC50 for viability” value in assay [1] is 0.643 µM. Moreover, the drug sensitivity score in assay [2] came to 13.2.
For `FC(F)(F)c1ccc(/C=C/c2nc(COc3ccc(CCCCn4ccnn4)cc3)co2)cc1` [Mubritinib], the “absolute EC50 for viability” value in assay [1] was over 1 µM. The molecule further gave a drug sensitivity score in assay [2] of 0.4.
On the same counts, the results for `OC[C@H]1O[C@@H](n2cnc3c2N=CNC[C@H]3O)C[C@@H]1O` [Pentostatin] are over 10 µM and 0.4.
Take `C=CC(=O)N1CCC(Oc2cc3c(Nc4ccc(Cl)c(Cl)c4F)ncnc3cc2OC)CC1` [Poziotinib]: in assay [1], the “absolute EC50 for viability” value was over 1 µM. Moreover, the drug sensitivity score in assay [2] is 4.2.
With `COc1cc2c(NC3CCN(C(C)C)CC3)nc(C3CCCCC3)nc2cc1OCCCN1CCCC1` [UNC0638], the “absolute EC50 for viability” value in assay [1] was 3.29 µM. Also, in assay [2], the drug sensitivity score was 5.4.
For the molecule `CC(=O)c1cc2c(o1)C(=O)c1ccccc1C2=O` [Napabucasin], the “absolute EC50 for viability” value in assay [1] worked out at 0.64 µM. Also, the drug sensitivity score in assay [2] stood at 17.6.
For `COc1cc2c(NC3CCN(C(C)C)CC3)nc(N3CCC(F)(F)CC3)nc2cc1OCCCN1CCCC1` [UNC0642], in that order: 3.38 µM and 5.2.
As for `CCCC(CCC)C(=O)O` [Valproic acid], the “absolute EC50 for viability” value in assay [1] was over 1000 µM. In assay [2], the drug sensitivity score worked out at 0.
In the case of `NC(=O)c1cnc2[nH]ccc2c1NC1C2CC3CC1CC(O)(C3)C2` (configuration not stated) [Peficitinb], the “absolute EC50 for viability” value in assay [1] was over 2.5 µM. In assay [2], the drug sensitivity score was found to be 1.7.
In the case of `Oc1ncnc2[nH]ncc12` [Allopurinol], the “absolute EC50 for viability” value in assay [1] is over 10 µM. The molecule further gave a drug sensitivity score in assay [2] of 0.
On the same counts, the results for `COc1cc(OC2CCN(C)CC2)ccc1Nc1ncc2c(n1)n(C1CCCC1)c(=O)n2C` [AZ 3146] are over 10 µM and 2.9.
For the molecule `CNC(=O)c1cc(Oc2ccc(NC(=O)Nc3ccc(Cl)c(C(F)(F)F)c3)c(F)c2)ccn1` [Regorafenib], in assay [1], the “absolute EC50 for viability” value is over 10 µM. The molecule further came in with a drug sensitivity score in assay [2] of 0.7.
Regarding `O=C(Nc1ccc2[nH]nc(-c3ccncc3)c2c1)[C@@H]1CCN(CC(=O)N2CCN(c3ccc(-c4ncccn4)cc3)CC2)C1`, the “absolute EC50 for viability” value in assay [1] is over 10 µM. Also, the drug sensitivity score in assay [2] worked out at 4.
In the case of `Cc1cc(-c2ncc(CC(=O)Nc3ccc(-c4cnccn4)cn3)cc2C)ccn1` [NVP-LGK974], in assay [1], the “absolute EC50 for viability” value is over 10 µM. In assay [2], this molecule returned a drug sensitivity score of 0.4.
Regarding `CCCCCOC(=O)Nc1nc(=O)n([C@@H]2O[C@H](C)[C@@H](O)[C@H]2O)cc1F` [Capecitabine], the “absolute EC50 for viability” value in assay [1] was over 10 µM. In assay [2], the drug sensitivity score was found to be 0.
For `CCC1(c2ccc(N)cc2)CCC(=O)NC1=O` (configuration not stated) [Aminoglutethimide], in that order: over 10 µM and 0.
For `C#Cc1cccc(Nc2ncnc3cc(OCCOC)c(OCCOC)cc23)c1` [Erlotinib], the “absolute EC50 for viability” value in assay [1] is over 10 µM. The molecule also displayed a drug sensitivity score in assay [2] of 1.5.
Consider `CS(=O)(=O)N1CCN(Cc2cc3nc(-c4cccc5[nH]ncc45)nc(N4CCOCC4)c3s2)CC1` [Pictilisib], for which the “absolute EC50 for viability” value in assay [1] is 1.28 µM. In assay [2], this molecule had a drug sensitivity score of 11.
Turning to `CCS(=O)(=O)c1cccc(-c2cc(C(=O)NC3CCN(C)CC3)c(C)c3[nH]c4ncc(C)cc4c23)c1` [TAK-901], in assay [1], the “absolute EC50 for viability” value was 0.265 µM. Besides, in assay [2], the drug sensitivity score came to 5.9.
With `CCOC(=O)CCNc1cc(N2CCc3ccccc3CC2)nc(-c2ccccn2)n1` [GSK-J4], the “absolute EC50 for viability” value in assay [1] is 73 µM. Moreover, the drug sensitivity score in assay [2] was 2.8.
On the same counts, the results for `CCCCNc1ncc(C(=O)NCc2ccc(-n3ccnc3)cc2)c(NC2CCC(O)CC2)n1` (configuration not stated) [UNC2881] are over 2.5 µM and 0.1.
For `Cc1cc(C(C)Nc2ccccc2)c2nc(N3CCOCC3)cc(=O)n2c1` (configuration not stated) [TGX-221], in that order: over 10 µM and 0.3.
As to `COc1cc(C)[nH]c(=O)c1CNC(=O)c1c(C)n([C@H](C)C2CCOCC2)c2ccccc12` [CPI-360], the “absolute EC50 for viability” value in assay [1] was over 10 µM. This molecule gave a drug sensitivity score in assay [2] of 0.
On to `Cc1cc(Nc2cc(CN3CCOCC3)c3nc(C)c(Cc4ccc(Cl)cc4F)n3n2)n[nH]1` [Gandotinib], for which the “absolute EC50 for viability” value in assay [1] is 2.49 µM. The drug sensitivity score in assay [2] stood at 6.3.
In the case of `COc1cc2c(Oc3ccc(NC(=O)C4(C(=O)Nc5ccc(F)cc5)CC4)cc3F)ccnc2cc1OCCCN1CCOCC1` [Foretinib], in assay [1], the “absolute EC50 for viability” value amounted to 0.46 µM. In assay [2], this molecule yielded a drug sensitivity score of 6.
For `CNCc1ccc(-c2[nH]c3cc(F)cc4c3c2CCNC4=O)cc1` [Rucaparib], the “absolute EC50 for viability” value in assay [1] is over 10 µM. The molecule further registered a drug sensitivity score in assay [2] of 2.3.
As for `O=C(CCNC(=O)c1ccc(OC(F)(F)F)cc1)N[C@@H]1CCCc2ccccc21` [ML390], in assay [1], the “absolute EC50 for viability” value was over 50 µM. In assay [2], the drug sensitivity score stood at 0.3.
For `Nc1cccc2c1CN(C1CCC(=O)NC1=O)C2=O` (configuration not stated) [Lenalidomide], the “absolute EC50 for viability” value in assay [1] is over 100 µM. Moreover, in assay [2], the drug sensitivity score stood at 0.
Consider `C[C@@H]1CN(Cc2ccc(F)cc2)[C@@H](C)CN1C(=O)c1cc2c(C(=O)C(=O)N(C)C)cn(C)c2cc1Cl` [Talmapimod], for which the “absolute EC50 for viability” value in assay [1] is over 10 µM. Also, the drug sensitivity score in assay [2] worked out at 0.
As to `O=C(O)c1ccc(-c2c[nH]c3ncc(-c4ccccc4)cc23)cc1C1CCCC1`, in assay [1], the “absolute EC50 for viability” value was over 10 µM. This molecule came in with a drug sensitivity score in assay [2] of 0.7.
Regarding `Cn1nccc1Nc1nccc(-c2ccn([C@H](CO)c3ccc(Cl)c(F)c3)c(=O)c2)n1` [Ravoxertinib], the “absolute EC50 for viability” value in assay [1] was over 10 µM. Also, the drug sensitivity score in assay [2] is 0.
For `Nc1cccc2c1C(=O)N(C1CCC(=O)NC1=O)C2=O` (configuration not stated) [Pomalidomide], in that order: over 10 µM and 0.
Regarding `CC[C@]12C=CCN3CC[C@@]4(c5cc([C@@]6(C(=O)OC)C[C@@H]7C[C@@H](C(C)(F)F)CN(Cc8c6[nH]c6ccccc86)C7)c(OC)cc5N(C)[C@H]4[C@@](O)(C(=O)OC)[C@@H]1OC(C)=O)[C@@H]32` [Vinflunine], in assay [1], the “absolute EC50 for viability” value was over 1 µM. For the same molecule, the drug sensitivity score in assay [2] was found to be 2.8.
Take `CC[C@H](CC#N)OC(=O)N[C@@H](C)c1cccc(NC(=O)Nc2ccc(-c3cnco3)c(OC)c2)c1` [AVN944]: the “absolute EC50 for viability” value in assay [1] is over 10 µM. This molecule displayed a drug sensitivity score in assay [2] of 3.9.
As to `CCC(C)(C)C(=O)O[C@H]1C[C@@H](C)C=C2C=C[C@H](C)[C@H](CC[C@@H]3C[C@@H](O)CC(=O)O3)[C@H]21` [Simvastatin], in assay [1], the “absolute EC50 for viability” value was over 10 µM. The molecule further returned a drug sensitivity score in assay [2] of 2.4.
Consider `Cc1ccc(C(=O)Nc2ccc(CN3CCN(C)CC3)c(C(F)(F)F)c2)cc1C#Cc1cnc2cccnn12` [Ponatinib], for which the “absolute EC50 for viability” value in assay [1] is over 1 µM. The drug sensitivity score in assay [2] is 4.6.
For `COc1cc2ncnc(Oc3cccc(NC(=O)Nc4cc(C(C)(C)C(F)(F)F)on4)c3)c2cc1OC`, in that order: over 10 µM and 4.6.
With `COc1cccc2c1c(O)c(C(=O)N(C)c1ccc(C(F)(F)F)cc1)c(=O)n2C` [Tasquinimod], the “absolute EC50 for viability” value in assay [1] was over 10 µM. The molecule also displayed a drug sensitivity score in assay [2] of 0.8.
Turning to `CCNCCS(=O)(=O)NC[C@@]1(c2ccccc2)SC(NC(=O)C(C)(C)C)=NN1C(=O)C(C)(C)C` [Litronesib], the “absolute EC50 for viability” value in assay [1] is over 1 µM. In assay [2], this molecule registered a drug sensitivity score of 0.
Take `COc1ccc2[nH]cc(/C=C3\C(=O)Nc4ccc(NC(=O)CCN5CCCCC5)cc43)c2c1`: the “absolute EC50 for viability” value in assay [1] came out at 7.38 µM. Further, in assay [2], the drug sensitivity score stood at 9.6.
As for `CC[C@H](C)C(=O)O[C@H]1C[C@@H](C)C=C2C=C[C@H](C)[C@H](CC[C@@H]3C[C@@H](O)CC(=O)O3)[C@H]21` [Lovastatin], the “absolute EC50 for viability” value in assay [1] was over 10 µM. In assay [2], this molecule had a drug sensitivity score of 0.
In the case of `Cn1cc(C[C@@H](N)C(=O)O)c2ccccc21` [1-methyl-D-tryptophan], the “absolute EC50 for viability” value in assay [1] was over 5 µM. Further, in assay [2], the drug sensitivity score came out at 0.
As for `CN[C@@H](C)C(=O)N[C@H]1CN(C(=O)CC(C)C)CC[C@H]2CC[C@@H](C(=O)NC(c3ccccc3)c3ccccc3)N2C1=O` [AT-406], the “absolute EC50 for viability” value in assay [1] is over 10 µM. In addition, the drug sensitivity score in assay [2] turned out to be 0.
On to `COc1cccc2c1C(=O)c1c(O)c3c(c(O)c1C2=O)C[C@@](O)(C(=O)CO)C[C@@H]3O[C@H]1C[C@H](N)[C@H](O)[C@H](C)O1` [Doxorubicin], for which the “absolute EC50 for viability” value in assay [1] was determined as 0.219 µM. In addition, the drug sensitivity score in assay [2] turned out to be 6.8.
Take `Cc1nc(C(=O)NCC(=O)O)c(O)c2ccc(Oc3ccccc3)cc12` [Roxadustat]: the “absolute EC50 for viability” value in assay [1] is over 10 µM. Moreover, the drug sensitivity score in assay [2] turned out to be 0.5.
